Assay results published in patent publication US11628169B2, “Therapeutic drug for motor complications in Parkinson's disease” (Sumitomo Pharma Co., Ltd., priority 2020, dated 2023).
“Also recorded” adds a separate entry of the source.

Key:
Format in all cases: in vivo
[1] = tested on: PD-LID rat model; experiment: Dyskinesia-like symptom (AIMs) score in PD-LID rat model; conditions: continuous subcutaneous infusion 60 mg/mL (mean 0.78 mg/kg/hour); day 0 of implanting the pump; vs solvent group
Protocol: To make a PD-LID rat model, a mixture of levodopa methyl ester hydrochloride (6 mg/kg; Sigma-Aldrich) dissolved in saline and benserazide hydrochloride (15 mg/kg; Sigma-Aldrich) (hereinafter, also referred to as “levodopa containing solution”) was intraperitoneally administered once daily to 6-OHDA-lesioned rats. The levodopa containing solution was repeatedly administered for 3 weeks or longer to observe and evaluate the behavior. The behavior was observed and evaluated in a transparent acrylic cage for 1 minute every 20 minutes after 20 minutes from the intraperitoneal administration of the levodopa containing solution, up until after 3 hours from administration. […] The sum of the scores for Limb AIMs, Axial AIMs, and Orolingual AIMs in 3 hours was used as the total dyskinesia-like symptom (AIMs) score. Individuals with a total AIMs score of less than 10 were excluded from the test as not manifesting a dyskinesia-like symptom. The behavior was observed and evaluated before the drug evaluation date. The rats were assigned to each dosing group by using the 3 hour total dyskinesia-like symptom (AIMs) score, Locomotive behavior score, and rat body weight as indicators, which were used for evaluation of drugs. […]
After 4 hours from application, a levodopa containing solution was intraperitoneally administered to observe and evaluate the behavior. Individuals with 50% or more of the tape agent coming off during the test were excluded from analysis. […]
As in Example 2, a levodopa containing solution was repeated administered to 6-0HDA-lesioned rats for 3 weeks or longer to observe and evaluate the behavior. The behavior was observed and evaluated before the drug evaluation date. The rats were assigned to each dosing group by using the 3 hour dyskinesia-like symptom (AIMs) score, Locomotive behavior score, and rat body weight as indicators, which were used for evaluation of drugs. However, individuals with a total AIMs score of less than 10 were excluded from the test as lacking manifestation of a dyskinesia-like symptom. Individuals with a body weight deviating 10% or more from the mean body weight were also excluded from the test to minimize variation in the dosage for each individual. […]
After 4 hours, a levodopa containing solution was administered to observe and evaluate the behavior. […]
The prepared solution was used after injection into an ALZET® Osmotic Pump MODEL 2ML2 (4.53 μL/hour; DURECT) for releasing a drug solution at a stable rate for 2 weeks. […]
The behavior was observed and evaluated using the same method as Example 2. […] After 5 minutes, a levodopa containing solution was intraperitoneally administered, and the behavior was observed and evaluated. The results in the drawings are indicated in terms of mean value […] standard error. The test results were statistically analyzed by comparison with the solvent administration group by Steel test using the total dyskinesia-like symptom (AIMs) score in 3 hours and total dyskinesia-like symptom score in 100 to 180 minutes as parameters. * indicates p<0.05, meaning that there is a significant difference.
The behavior was observed and evaluated using the same method in Example 2. […] The test results were statistically analyzed by comparison with the solvent administration group by Steel test by using the total dyskinesia-like symptom (AIMs) score in 3 hours and total dyskinesia-like symptom score in 100 to 180 minutes as parameters.

[2] = tested on: PD-LID rat model; experiment: as above
[3] = tested on: PD-LID rat model; experiment: ON score and ON time without dyskinesia in PD-LID rat model; conditions: for total ON score (Locomotive behavior) in 3 hours: levodopa 5 min later
Protocol: To make a PD-LID rat model, a mixture of levodopa methyl ester hydrochloride (6 mg/kg; Sigma-Aldrich) dissolved in saline and benserazide hydrochloride (15 mg/kg; Sigma-Aldrich) (hereinafter, also referred to as “levodopa containing solution”) was intraperitoneally administered once daily to 6-OHDA-lesioned rats. The levodopa containing solution was repeatedly administered for 3 weeks or longer to observe and evaluate the behavior. The behavior was observed and evaluated in a transparent acrylic cage for 1 minute every 20 minutes after 20 minutes from the intraperitoneal administration of the levodopa containing solution, up until after 3 hours from administration. […] Individuals with a total AIMs score of less than 10 were excluded from the test as not manifesting a dyskinesia-like symptom. The behavior was observed and evaluated before the drug evaluation date. […] For an indicator of dyskinesia behavior, the sum of the Limb AIMs, Axial AIMs, and Orolingual AIMs at each evaluation point was used as the AIMs score. For the rotational behavior (ON score), Locomotive behavior at each evaluation point was used as an indicator. […] For ON time without dyskinesia, the period during which the AIMs score is 0 and Locomotive behavior is 1 or greater at each evaluation point was added. Duration of action of levodopa without a dyskinesia symptom (ON time without dyskinesia) refers to the aggregate time with no dyskinesia during the antiparkinsonian action effective time, i.e., “ON-time”, and defined as the time during which the dyskinesia symptom (AIMs) score is 0 and the rotational behavior (Locomotive behavior) score is 1 or greater at each evaluation point after levodopa administration. […] After 5 minutes, a levodopa containing solution was intraperitoneally administered, and the behavior was observed and evaluated. The results in the drawings are indicated in terms of mean value±standard error. […] For evaluation of a tape agent, the abdominal regions of the rats were shaved prior to the evaluation date. […] After 4 hours from application, a levodopa containing solution was intraperitoneally administered to observe and evaluation the behavior. The results in the drawings are indicated in terms of mean value±standard error. Individuals with 50% or more of the tape agent coming off during the test were excluded from analysis.

[4] = oral 67 mg/kg as free form (100 mg/kg as citrate)

tandospirone citrate
dyskinesia-like symptoms (total AIMs score in 3 hours) [1]: Significant improvement in dyskinesia-like symptoms | dyskinesia-like symptoms (total AIMs score in 3 hours) ([2]; continuous subcutaneous infusion 60 mg/mL (mean 0.78 mg/kg/hour), day 13 of implanting the pump, vs solvent group): significant improvement in dyskinesia-like symptoms | (i) Degree of improvement in indicator of dyskinesia symptom (total AIMs score in 3 hours, solvent minus tandospirone group) ([2]; oral 6.7 mg/kg as free form (10 mg/kg as citrate)): significant change in the total AIMs score was not observed | (i) Degree of improvement in indicator of dyskinesia symptom (total AIMs score in 3 hours, solvent minus tandospirone group) ([2]; oral 20 mg/kg as free form (30 mg/kg as citrate)): significant change in the total AIMs score was not observed | (ii) Indicator of rebound symptom of dyskinesia (total dyskinesia-like symptom score in 100 to 180 minutes, solvent minus tandospirone group) ([2]; oral 20 mg/kg as free form (30 mg/kg as citrate), experiment printed as (FIG. 7)): significant increase in the total AIMs score | (ii) Indicator of rebound symptom of dyskinesia (total dyskinesia-like symptom score in 100 to 180 minutes, solvent minus tandospirone group) ([2]; oral 20 mg/kg as free form (30 mg/kg as citrate), experiment printed as (FIGS. 8A-8B)): significant increase in the total AIMs score | (i) Degree of improvement in indicator of dyskinesia symptom (total AIMs score in 3 hours, solvent minus tandospirone group) [2, 4]: significant change in the total AIMs score was not observed | (ii) Indicator of rebound symptom of dyskinesia (total dyskinesia-like symptom score in 100 to 180 minutes, solvent minus tandospirone group) [2, 4]: significant increase in the total AIMs score | (iii) Duration of action of levodopa without dyskinesia symptom (ON time without dyskinesia) ([3]; oral 20 mg/kg as free form (30 mg/kg as citrate), vs solvent group): increase in ON time without dyskinesia | total ON score (Locomotive behavior) in 3 hours ([3]; oral 30 mg/kg as citrate, vs solvent group): increase in the total ON score | (iii) Duration of action of levodopa without dyskinesia symptom (ON time without dyskinesia) ([3]; oral 67 mg/kg as free form (100 mg/kg as citrate), prolongation vs solvent group): significant prolongation in the ON-time without dyskinesia; also recorded: increase in ON time without dyskinesia | total ON score (Locomotive behavior) in 3 hours ([3]; oral 100 mg/kg as citrate, vs solvent group): increase in the total ON score
